The structures appear in SMILES notation. Values joined by “and” are separate entries in the source; they are usually repeats but may differ in a detail not shown here. Equal values may be shown once. Active and inactive are the calls of the source. The rule behind the calls is not given here.

Experimental findings from PubChem BioAssay AID1745844 (Carcinogenic Potency Database (CPDB), 2022) are described below.

The data set has as its system rodent lifetime carcinogenesis bioassay, tumor incidence TD50. In words: carcinogenic potency in animals, long-term in vivo studies, CPDB compilation (AID 1745844).
Setting [1] is: mouse, strain B6AKF1, females, oral dosing, site: lung, lesion: adenoma, dosed 76 weeks, study length 76 weeks.

For orientation: TD50 means the dose at which the toxic effect under study appears in half of the subjects. With `CN(C)CCN(Cc1cccs1)c1ccccc1`, the carcinogen call (rat, strain Fischer 344, females, in drinking water, site: liver, lesion: several types, types named in the paper, dosed 82 weeks, study length 130 weeks) is “negative (inactive)”; the carcinogen call (rat, strain Fischer 344, males, in drinking water, site: liver, lesion: several types, types named in the paper, dosed 82 weeks, study length 130 weeks) was “negative (inactive)”; the carcinogen call (rat, strain Fischer 344, males, in drinking water, site: thyroid follicle, lesion: several types, types named in the paper, dosed 82 weeks, study length 130 weeks) was “negative (inactive)”. Also, the TD50 (rat, strain Fischer 344, females, in drinking water, site: thyroid follicle, lesion: several types, types named in the paper, dosed 82 weeks, study length 130 weeks) was 487 mg/kg/day (inactive).
Turning to `CCCCOCCOCCOCc1cc2c(cc1CCC)OCO2`, the carcinogen call reads like this: (mouse, strain B6AKF1, females, oral dosing, site: liver, lesion: hepatoma, dosed 76 weeks, study length 76 weeks) “negative (inactive)”; under setting [1], “negative (inactive)”; (mouse, strain B6AKF1, males, oral dosing, site: any site (literature study), lesion: several types, types named in the paper, dosed 76 weeks, study length 76 weeks) “negative (inactive)”; (mouse, strain B6AKF1, males, oral dosing, site: liver, lesion: hepatoma, dosed 76 weeks, study length 76 weeks) “negative (inactive)”; (mouse, strain B6AKF1, males, oral dosing, site: lung, lesion: adenoma, dosed 76 weeks, study length 76 weeks) “negative (inactive)”; (mouse, strain B6C3F1, females, in feed, site: any site (literature study), lesion: several types, types named in the paper, dosed 112 weeks, study length 112 weeks) “negative (inactive)”. In addition, the carcinogen call (mouse, strain B6C3F1, females, oral dosing, site: any site (literature study), lesion: one or several types, types not named, dosed 76 weeks, study length 76 weeks) was “negative (inactive)”; the carcinogen call (mouse, strain B6C3F1, females, oral dosing, site: liver, lesion: hepatoma, dosed 76 weeks, study length 76 weeks) is “negative (inactive)”; the carcinogen call (mouse, strain B6C3F1, females, oral dosing, site: lung, lesion: several types, types named in the paper, dosed 76 weeks, study length 76 weeks) is “negative (inactive)”; the carcinogen call (mouse, strain B6C3F1, males, in feed, site: any site (literature study), lesion: several types, types named in the paper, dosed 112 weeks, study length 112 weeks) is “negative (inactive)”; the carcinogen call (mouse, strain B6C3F1, males, oral dosing, site: lung, lesion: several types, types named in the paper, dosed 76 weeks, study length 76 weeks) is “negative (inactive)”; the carcinogen call (rat, strain F344/DuCrj, females, in feed, site: any site (literature study), lesion: several types, types named in the paper, dosed 104 weeks, study length 110 weeks) was “negative (inactive)”. Further, the carcinogen call (rat, strain F344/DuCrj, females, in feed, site: liver, lesion: neoplastic nodule, dosed 104 weeks, study length 110 weeks) was “negative (inactive)”; the carcinogen call (rat, strain F344/DuCrj, males, in feed, site: any site (literature study), lesion: several types, types named in the paper, dosed 104 weeks, study length 110 weeks) is “negative (inactive)”; the carcinogen call (rat, strain Fischer 344, males, in feed, site: any site (literature study), lesion: several types, types named in the paper, dosed 107 weeks, study length 107 weeks) is “negative (inactive)”. Moreover, the TD50 under setting [1] was 265 mg/kg/day; the TD50 (mouse, strain B6C3F1, females, in feed, site: liver, lesion: hepatocellular adenoma + hepatocellular carcinoma + neoplastic nodule, dosed 112 weeks, study length 112 weeks) was 3260 mg/kg/day; the TD50 (mouse, strain B6C3F1, females, oral dosing, site: any site (literature study), lesion: several types, types named in the paper, dosed 76 weeks, study length 76 weeks) stood at 83.1 mg/kg/day; the TD50 (mouse, strain B6C3F1, males, oral dosing, site: all sites, lesion: reticulum-cell sarcoma, dosed 76 weeks, study length 76 weeks) was found to be 34.8 mg/kg/day; the TD50 (mouse, strain B6C3F1, males, oral dosing, site: liver, lesion: hepatoma, dosed 76 weeks, study length 76 weeks) is 186 mg/kg/day (inactive) and 98.5 mg/kg/day; the TD50 (mouse, strain Charles River CD1, females, in feed, site: liver, lesion: basophil adenoma, dosed 79 weeks, study length 79 weeks) worked out at 4540 mg/kg/day. The TD50 reads like this: (mouse, strain Charles River CD1, females, in feed, site: liver, lesion: eosinophilic adenoma, dosed 79 weeks, study length 79 weeks) 1120 mg/kg/day; (mouse, strain Charles River CD1, females, in feed, site: liver, lesion: hepatocellular adenoma, dosed 52 weeks, study length 52 weeks) 2380 mg/kg/day; (mouse, strain Charles River CD1, females, in feed, site: liver, lesion: hepatocellular adenoma, dosed 79 weeks, study length 79 weeks) 825 mg/kg/day; (mouse, strain Charles River CD1, females, in feed, site: liver, lesion: hepatocellular carcinoma, dosed 52 weeks, study length 52 weeks) 756 mg/kg/day; (mouse, strain Charles River CD1, females, in feed, site: liver, lesion: several types, types named in the paper, dosed 52 weeks, study length 52 weeks) 516 mg/kg/day; (mouse, strain Charles River CD1, males, in feed, site: liver, lesion: basophil adenoma, dosed 79 weeks, study length 79 weeks) 844 mg/kg/day. For the same compound, the TD50 is, setting by setting: (mouse, strain Charles River CD1, males, in feed, site: liver, lesion: eosinophilic adenoma, dosed 79 weeks, study length 79 weeks) 355 mg/kg/day; (mouse, strain Charles River CD1, males, in feed, site: liver, lesion: hepatocellular adenoma, dosed 52 weeks, study length 52 weeks) 1060 mg/kg/day; (mouse, strain Charles River CD1, males, in feed, site: liver, lesion: hepatocellular adenoma, dosed 79 weeks, study length 79 weeks) 160 mg/kg/day; (mouse, strain Charles River CD1, males, in feed, site: liver, lesion: hepatocellular carcinoma, dosed 52 weeks, study length 52 weeks) 410 mg/kg/day; (mouse, strain Charles River CD1, males, in feed, site: liver, lesion: hepatocellular carcinoma, dosed 79 weeks, study length 79 weeks) 3470 mg/kg/day; (mouse, strain Charles River CD1, males, in feed, site: liver, lesion: mixed cell adenoma, dosed 79 weeks, study length 79 weeks) 2630 mg/kg/day. Moreover, the TD50 by setting is: (mouse, strain Charles River CD1, males, in feed, site: liver, lesion: several types, types named in the paper, dosed 52 weeks, study length 52 weeks) 229 mg/kg/day; (rat, strain Charles River CD (Sprague-Dawley), females, in feed, site: liver, lesion: hepatocellular carcinoma, dosed 104 weeks, study length 104 weeks) 12800 mg/kg/day (inactive); (rat, strain Charles River CD (Sprague-Dawley), males, in feed, site: liver, lesion: hepatocellular adenoma, dosed 104 weeks, study length 104 weeks) 12800 mg/kg/day (inactive); (rat, strain Charles River CD (Sprague-Dawley), males, in feed, site: liver, lesion: hepatocellular carcinoma, dosed 104 weeks, study length 104 weeks) 78500 mg/kg/day (inactive); (rat, strain F344/DuCrj, females, in feed, site: liver, lesion: cholangioma, cystic, dosed 96 weeks, study length 96 weeks) 19100 mg/kg/day; (rat, strain F344/DuCrj, females, in feed, site: liver, lesion: hepatocellular adenoma, dosed 96 weeks, study length 96 weeks) 2460 mg/kg/day. In addition, the TD50 by setting is: (rat, strain F344/DuCrj, females, in feed, site: liver, lesion: hepatocellular carcinoma, dosed 96 weeks, study length 96 weeks) 2220 mg/kg/day; (rat, strain F344/DuCrj, females, in feed, site: liver, lesion: hepatocellular tumor, dosed 96 weeks, study length 96 weeks) 977 mg/kg/day; (rat, strain F344/DuCrj, males, in feed, site: liver, lesion: cholangioma, cystic, dosed 95 weeks, study length 95 weeks) 30200 mg/kg/day; (rat, strain F344/DuCrj, males, in feed, site: liver, lesion: hepatocellular adenoma, dosed 95 weeks, study length 95 weeks) 1400 mg/kg/day; (rat, strain F344/DuCrj, males, in feed, site: liver, lesion: hepatocellular carcinoma, dosed 95 weeks, study length 95 weeks) 806 mg/kg/day; (rat, strain F344/DuCrj, males, in feed, site: liver, lesion: hepatocellular carcinoma, dosed 104 weeks, study length 110 weeks) 20100 mg/kg/day (inactive). Also, the TD50 was 468 mg/kg/day (rat, strain F344/DuCrj, males, in feed, site: liver, lesion: hepatocellular tumor, dosed 95 weeks, study length 95 weeks); 7690 mg/kg/day (inactive) (rat, strain F344/DuCrj, males, in feed, site: liver, lesion: neoplastic nodule, dosed 104 weeks, study length 110 weeks); 1180 mg/kg/day (inactive) (rat, strain Fischer 344, females, in feed, site: all sites, lesion: lymphoma, dosed 107 weeks, study length 107 weeks); 7820 mg/kg/day (rat, strain Fischer 344, females, in feed, site: any site (literature study), lesion: several types, types named in the paper, dosed 107 weeks, study length 107 weeks); 26100 mg/kg/day (inactive) (rat, strain Wistar, both sexes, in feed, site: liver, lesion: hepatocellular carcinoma, dosed 95 weeks, study length 104 weeks); 22500 mg/kg/day (inactive) (rat, strain Wistar, both sexes, in feed, site: liver, lesion: hepatoma, dosed 95 weeks, study length 104 weeks).
Consider `CN(CCCC(=O)O)N=O`, for which the TD50 is 0.982 mg/kg/day (rat, strain F344/DuCrj, males, in drinking water, site: urinary bladder/ureter, lesion: several types, types named in the paper, dosed 40 weeks, study length 78 weeks) and 4.23 mg/kg/day (rat, strain F344/DuCrj, males, in drinking water, site: urinary bladder/ureter, lesion: transitional-cell carcinoma, dosed 40 weeks, study length 78 weeks).
`Oc1ccc2ccccc2c1N=Nc1ccccc1`: the TD50 by setting is: (mouse, strain B6C3F1, females, in feed, site: all sites, lesion: lymphoma, dosed 103 weeks, study length 105 weeks) 128 mg/kg/day (inactive); (mouse, strain B6C3F1, females, in feed, site: any site (literature study), lesion: several types, types named in the paper, dosed 103 weeks, study length 105 weeks) 391 mg/kg/day; (mouse, strain B6C3F1, females, in feed, site: liver, lesion: hepatocellular adenoma + hepatocellular carcinoma + neoplastic nodule, dosed 103 weeks, study length 105 weeks) 833 mg/kg/day; (mouse, strain B6C3F1, females, in feed, site: lung, lesion: alveolar/bronchiolar adenoma + alveolar/bronchiolar carcinoma, dosed 103 weeks, study length 105 weeks) 3030 mg/kg/day; (mouse, strain B6C3F1, males, in feed, site: any site (literature study), lesion: several types, types named in the paper, dosed 103 weeks, study length 105 weeks) 154 mg/kg/day (inactive); (mouse, strain B6C3F1, males, in feed, site: liver, lesion: hepatocellular adenoma + hepatocellular carcinoma + neoplastic nodule, dosed 103 weeks, study length 105 weeks) 587 mg/kg/day. In addition, the TD50 runs as follows: (mouse, strain B6C3F1, males, in feed, site: lung, lesion: alveolar/bronchiolar adenoma + alveolar/bronchiolar carcinoma, dosed 103 weeks, study length 105 weeks) 1080 mg/kg/day; (rat, strain Fischer 344, females, in feed, site: liver, lesion: hepatocellular adenoma + hepatocellular carcinoma + neoplastic nodule, dosed 103 weeks, study length 104 weeks) 86.5 mg/kg/day; (rat, strain Fischer 344, females, in feed, site: liver, lesion: hepatocellular carcinoma + neoplastic nodule, dosed 103 weeks, study length 104 weeks) 86.5 mg/kg/day; (rat, strain Fischer 344, females, in feed, site: liver, lesion: neoplastic nodule, dosed 103 weeks, study length 104 weeks) 96.6 mg/kg/day; (rat, strain Fischer 344, females, in feed, site: subcutaneous tissue, lesion: fibroma, dosed 103 weeks, study length 104 weeks) 346 mg/kg/day; (rat, strain Fischer 344, males, in feed, site: any site (literature study), lesion: several types, types named in the paper, dosed 103 weeks, study length 104 weeks) 106 mg/kg/day. The TD50 (rat, strain Fischer 344, males, in feed, site: liver, lesion: hepatocellular adenoma + hepatocellular carcinoma + neoplastic nodule, dosed 103 weeks, study length 104 weeks) came to 17.9 mg/kg/day; the TD50 (rat, strain Fischer 344, males, in feed, site: liver, lesion: hepatocellular carcinoma + neoplastic nodule, dosed 103 weeks, study length 104 weeks) is 17.9 mg/kg/day; the TD50 (rat, strain Fischer 344, males, in feed, site: liver, lesion: neoplastic nodule, dosed 103 weeks, study length 104 weeks) is 17.7 mg/kg/day. The carcinogen call is “negative (inactive)” (mouse, strain CBA, females, in feed, site: liver, lesion: hepatoma, dosed 52 weeks, study length 104 weeks) and “negative (inactive)” (mouse, strain CBA, males, in feed, site: liver, lesion: hepatoma, dosed 52 weeks, study length 104 weeks).
